Reference: ChEMBL document CHEMBL1129186, “Synthesis of new non-nucleoside inhibitors of HIV-1” (Bioorg Med Chem Lett, 1996)

Tests used:
[1] = test system: CEM-SS; assay: Compound was evaluated for antiviral activity against CEM SS cells infected with HIV-1(LAI strain).; assay type: functional, cell-based; settings: Homo sapiens
[2] = test system: CEM-SS; assay: Compound was evaluated for cytotoxicity against CEM SS cells infected with HIV-1(LAI strain).; assay type: functional; settings: Homo sapiens

Compound	IC50 [1]	CC50 [2]
CC(=O)OCCCc1cc(Sc2cc(C)cc(C)c2)c([N+](=O)[O-])c(O)n1	1 µM	> 1 µM
Cc1cc(C)cc(Sc2cc(CCCO)nc(O)c2[N+](=O)[O-])c1	8 µM	> 1 µM
Cc1cn([C@H]2C[C@H](N=[N+]=[N-])[C@@H](CO)O2)c(=O)[nH]c1=O [ZIDOVUDINE]	3 µM	> 10 µM
CCc1c(C)nc(Cl)c([N+](=O)[O-])c1[S+]([O-])c1cc(C)cc(C)c1 (configuration not stated)	3 µM	8 µM

Now from value to compound, other results behind:

IC50 [1]	Compound	CC50 [2]
8 µM	CCc1c(C)nc(Cl)c([N+](=O)[O-])c1Sc1cc(C)cc(C)c1	> 1 µM
6 µM	CCc1c(C)nc(O)c([N+](=O)[O-])c1Sc1cc(C)cc(C)c1	> 10 µM
